Assay results from patent US6495571B1, “Pyridine compounds, use and preparation thereof” (Southern Research Institute, priority 1999, dated 2002).
Where two headings read alike, the source gives them in different places.

Assays:
[1] = tested on: human MX-1 mammary tumor (sc, 30-40 mg fragments); test: In vivo antitumor activity, s.c.-implanted MX-1 xenograft; set-up: species or system Athymic mice (Ncr-nu)
[2] = tested on: ZR-75-1 human mammary tumor; test: In vivo antitumor activity, sc ZR-75-1 xenograft; set-up: species or system Athymic mice (Ncr-nu)
MCF7 human mammary tumor = test: In vivo antitumor activity, sc MCF7 xenograft; set-up: species or system Athymic mice (Ncr-nu)
[3] = tested on: UISO-BCA-1 human mammary tumor; test: In vivo antitumor activity, sc UISO-BCA-1 xenograft; set-up: species or system Athymic mice (Ncr-nu); conditions: IP 90 mg/kg/dose, Days 16-20
HT29 human colon tumor = test: In vivo antitumor activity, sc HT29 xenograft; set-up: species or system Athymic mice (Ncr-nu)
[4] = tested on: NCI-H82 small cell lung tumor; test: In vivo antitumor activity, sc NCI-H82 xenograft; set-up: species or system Athymic mice (Ncr-nu)
[5] = tested on: NCI-H460 nonsmall cell lung tumor; test: In vivo antitumor activity, sc NCI-H460 xenograft; set-up: species or system Athymic mice (Ncr-nu); conditions: IP 90 mg/kg/dose, Days 6-10
U251 human CNS tumor = test: In vivo antitumor activity, sc U251 xenograft; set-up: species or system Athymic mice (Ncr-nu)
SF-295 CNS tumor = test: In vivo antitumor activity, sc SF-295 xenograft; set-up: species or system Athymic mice (Ncr-nu); conditions: IP 90 mg/kg/dose, Days 9-13
CAKI-1 human renal tumor = test: In vivo antitumor activity, sc CAKI-1 xenograft; set-up: species or system Athymic mice (Ncr-nu)
OVCAR-5 ovarian tumor = test: In vivo antitumor activity, sc OVCAR-5 xenograft; set-up: species or system Athymic mice (Ncr-nu); conditions: IP 90 mg/kg/dose, Days 12-16
SK-MEL-28 melanoma = test: In vivo antitumor activity, sc SK-MEL-28 xenograft; set-up: species or system Athymic mice (Ncr-nu); conditions: IP 90 mg/kg/dose, Days 8-12
[6] = tested on: P388/CPA (cyclophosphamide-resistant) leukemia; type: in vivo, CD2F1 female mice; conditions: for 50-DAY SURV./TOTAL / % ILS / APPROX. NET LOG10 CHANGE IN TUMOR BURDEN AT END OF Rx: Q1D × 5 (1)
[7] = tested on: P388/L-PAM (melphalan-resistant) leukemia; conditions: for activity in this tumor model (in words): mouse, in vivo
[8] = tested on: human MX-1 mammary tumor (ic, 10^6 cells); test: In vivo antitumor activity, i.c.-implanted MX-1 xenograft; conditions: for Median % ILS (dying mice only): Days 1-5
[9] = tested on: P388/BCNU (carmustine-resistant) leukemia; test: Antitumor activity against IP-implanted P388/BCNU leukemia
Cytotoxicity in vitro = type: cell-based
[10] = rats; cited from earlier work
[11] = dogs; cited from earlier work
[12] = one hour infusion for 5 consecutive days, patients; cited from earlier work
[13] = 14C-penclomedine, tumor-bearing rats; cited from earlier work
[14] = oral (gavage) 135 mg/kg/dose, Days 13-17
[15] = highest nontoxic doses evaluated, versus DM-PEN
[16] = highest nontoxic doses evaluated, versus PEN
[17] = IP 60.0 mg/kg/dose, Q1D × 5 (1)
[18] = IP 90.0 mg/kg/dose, Q1D × 5 (1)
[19] = IP 135.0 mg/kg/dose, Q1D × 5 (1)
[20] = optimal doses (LD10 or less), schedule QD1-5, administered LP.

COc1nc(C(Cl)(Cl)Cl)c(Cl)c(OC(C)=O)c1Cl [DM-A-PEN]
T-C ([1]; IP 60 mg/kg/dose, Days 14-18): >38.3 days
Tumor-Free-Surv/Total ([1]; IP 60 mg/kg/dose, Days 14-18): 4/5
T-C ([1]; IP 60 mg/kg/dose, Days 15-19): >37.2 days
Tumor-Free-Surv/Total ([1]; IP 60 mg/kg/dose, Days 15-19): 3/5
T-C ([1]; IP 90 mg/kg/dose, Days 12-16): >41.0 days
Tumor-Free-Surv/Total ([1]; IP 90 mg/kg/dose, Days 12-16): 5/5
IP dosage marked (LD50) ([1]; IP, Days 15-19, sc MX-1 bearing mice): 60 (LD50) mg/kg/dose
T-C [1, 14]: >38.5 days
Tumor-Free-Surv/Total [1, 14]: 5/5
Tumor-Free-Surv/Total ([2]; IP 60 mg/kg/dose, Days 10-14): 0/5
Tumor-Free-Surv/Total ([2]; IP 90 mg/kg/dose, Days 8-12): 0/5
activity (in words) ([2]; s.c.-implanted): moderate to modest activity
T-C (MCF7 human mammary tumor; IP 60 mg/kg/dose, Days 14-18): 7.1 days
Tumor-Free-Surv/Total (MCF7 human mammary tumor; IP 60 mg/kg/dose, Days 14-18): 0/5
activity (in words) (MCF7 human mammary tumor; s.c.-implanted): moderate to modest activity
T-C [3]: -2.4 days
Tumor-Free-Surv/Total [3]: 0/5
T-C (HT29 human colon tumor; IP 90 mg/kg/dose, Days 14-18): 5.8 days
Tumor-Free-Surv/Total (HT29 human colon tumor; IP 90 mg/kg/dose, Days 14-18): 0/5
activity (in words) (HT29 human colon tumor; s.c.-implanted): moderate to modest activity
T-C ([4]; IP 60 mg/kg/dose, Days 13-17): 7.2 days
Tumor-Free-Surv/Total ([4]; IP 60 mg/kg/dose, Days 13-17): 0/5
activity (in words) ([4]; s.c.-implanted): moderate to modest activity
T-C [5]: -0.6 days
Tumor-Free-Surv/Total [5]: 0/5
Tumor-Free-Surv/Total (U251 human CNS tumor; IP 90 mg/kg/dose, Days 19-23): 0/5
activity (in words) (U251 human CNS tumor; s.c.-implanted): moderate to modest activity
T-C (SF-295 CNS tumor): 0.7 days
Tumor-Free-Surv/Total (SF-295 CNS tumor): 0/5
T-C (CAKI-1 human renal tumor; IP 90 mg/kg/dose, Days 19-23): 8.4 days
Tumor-Free-Surv/Total (CAKI-1 human renal tumor; IP 90 mg/kg/dose, Days 19-23): 0/5
activity (in words) (CAKI-1 human renal tumor; s.c.-implanted): moderate to modest activity
T-C (OVCAR-5 ovarian tumor): 4.0 days
Tumor-Free-Surv/Total (OVCAR-5 ovarian tumor): 0/5
T-C (SK-MEL-28 melanoma): 0.7 days
Tumor-Free-Surv/Total (SK-MEL-28 melanoma): 0/5
50-DAY SURV./TOTAL ([6]; IP 60.0 mg/kg/dose): 0/6
% ILS ([6]; IP 60.0 mg/kg/dose): +54%
APPROX. NET LOG10 CHANGE IN TUMOR BURDEN AT END OF Rx ([6]; IP 60.0 mg/kg/dose): −1.1
50-DAY SURV./TOTAL ([6]; IP 90.0 mg/kg/dose): 0/6
% ILS ([6]; IP 90.0 mg/kg/dose): +86%
APPROX. NET LOG10 CHANGE IN TUMOR BURDEN AT END OF Rx ([6]; IP 90.0 mg/kg/dose): −3.1
50-DAY SURV./TOTAL ([6]; IP 135.0 mg/kg/dose): 0/6
APPROX. NET LOG10 CHANGE IN TUMOR BURDEN AT END OF Rx ([6]; IP 135.0 mg/kg/dose): −5.7
more active than DM-PEN by log cell kill [6, 15]: 4.6 log cell kill
more active than PEN by log cell kill [6, 16]: 7.4 log cell kill
50-DAY SURV./TOTAL (P388/0 murine leukemia; [17]): 0/6
% ILS (P388/0 murine leukemia; [17]): +72%
APPROX. NET LOG10 CHANGE IN TUMOR BURDEN AT END OF Rx (P388/0 murine leukemia; [17]): −3.1
50-DAY SURV./TOTAL (P388/0 murine leukemia; [18]): 0/6
% ILS (P388/0 murine leukemia; [18]): +95%
APPROX. NET LOG10 CHANGE IN TUMOR BURDEN AT END OF Rx (P388/0 murine leukemia; [18]): −5.0
50-DAY SURV./TOTAL (P388/0 murine leukemia; [19]): 0/6
% ILS (P388/0 murine leukemia; [19]): +150%
APPROX. NET LOG10 CHANGE IN TUMOR BURDEN AT END OF Rx (P388/0 murine leukemia; [19]): ca −6.8
Lethality of the dosage (LD mark beside % ILS) (P388/0 murine leukemia; [19]): LD33
more active than DM-PEN by log cell kill (P388/0 murine leukemia; [15]): 1.9 log cell kill
more active than PEN by log cell kill (P388/0 murine leukemia; [16]): 0.4 log cell kill
50-DAY SURV./TOTAL [7, 17]: 0/6
% ILS [7, 17]: +14%
APPROX. NET LOG10 CHANGE IN TUMOR BURDEN AT END OF Rx [7, 17]: +1.2
50-DAY SURV./TOTAL [7, 18]: 0/6
% ILS [7, 18]: +14%
APPROX. NET LOG10 CHANGE IN TUMOR BURDEN AT END OF Rx [7, 18]: +1.2
50-DAY SURV./TOTAL [7, 19]: 0/6
% ILS [7, 19]: +35%
APPROX. NET LOG10 CHANGE IN TUMOR BURDEN AT END OF Rx [7, 19]: −0.8
Lethality of the dosage (LD mark beside % ILS) [7, 19]: LD17
MEDIAN DAY OF DEATH [7, 19]: 19.8
more active than PEN or DM-PEN by log cell kill ([7]; highest nontoxic doses evaluated, versus PEN or DM-PEN): 0.2-0.3 log cell kill
activity in this tumor model (in words) [7]: none of the three showed significant activity
Median % ILS (dying mice only) ([8]; IP 60 mg/kg/dose): +60%
Median % ILS (dying mice only) ([8]; oral (gavage) 135 mg/kg/dose): +88%
50-DAY SURV./TOTAL [9, 17]: 1/6
% ILS [9, 17]: +44%
APPROX. NET LOG10 CHANGE IN TUMOR BURDEN AT END OF Rx [9, 17]: 0
MEDIAN DAY OF DEATH [9, 17]: 13.0
50-DAY SURV./TOTAL [9, 18]: 0/6
% ILS [9, 18]: +77%
APPROX. NET LOG10 CHANGE IN TUMOR BURDEN AT END OF Rx [9, 18]: −2.3
50-DAY SURV./TOTAL [9, 19]: 0/6
APPROX. NET LOG10 CHANGE IN TUMOR BURDEN AT END OF Rx [9, 19]: −4.1
Lethality of the dosage (LD mark beside % ILS) [9, 19]: LD17
more active than DM-PEN by log cell kill [9, 15]: 1.5 log cell kill
more active than PEN by log cell kill [9, 16]: 3.5 log cell kill

COc1nc(C(Cl)(Cl)Cl)c(Cl)c(OC)c1Cl [PEN, 3,5-dichloro-2,4-dimethoxy-6-(trichloromethyl)pyridine]
50-DAY SURV./TOTAL ([6]; IP 60.0 mg/kg/dose): 0/6
% ILS ([6]; IP 60.0 mg/kg/dose): −5%
50-DAY SURV./TOTAL ([6]; IP 90.0 mg/kg/dose): 0/6
% ILS ([6]; IP 90.0 mg/kg/dose): −5%
50-DAY SURV./TOTAL ([6]; IP 135.0 mg/kg/dose): 0/6
% ILS ([6]; IP 135.0 mg/kg/dose): −5%
activity as cytotoxic agents in vitro (Cytotoxicity in vitro): inactive
50-DAY SURV./TOTAL (P388/0 murine leukemia; [17]): 0/6
50-DAY SURV./TOTAL (P388/0 murine leukemia; [18]): 0/6
APPROX. NET LOG10 CHANGE IN TUMOR BURDEN AT END OF Rx (P388/0 murine leukemia; [18]): −0.8
50-DAY SURV./TOTAL (P388/0 murine leukemia; [19]): 0/6
APPROX. NET LOG10 CHANGE IN TUMOR BURDEN AT END OF Rx (P388/0 murine leukemia; [19]): −4.8
50-DAY SURV./TOTAL [7, 17]: 0/6
50-DAY SURV./TOTAL [7, 18]: 0/6
50-DAY SURV./TOTAL [7, 19]: 0/6
activity in this tumor model (in words) [7]: none of the three showed significant activity
neurotoxicity (muscle tremors, incoordination, convulsions, reduced activity) [10]: Dose related neurotoxicity
plasma penclomedine levels associated with severe emesis and seizures [11]: above 30 μM
neurotoxicity (dysmetria, ataxia, vertigo) [12]: principal dose limiting toxicity
radioactive species in the brain [13]: predominant radioactive species in the brain
cures ([8]; Table 2 conditions): not
Median % ILS (based on dying mice only) [8, 20]: 88%
Survivors [8, 20]: 0/5
50-DAY SURV./TOTAL [9, 17]: 0/6
% ILS [9, 17]: −6%
50-DAY SURV./TOTAL [9, 18]: 0/6
% ILS [9, 18]: 0%
MEDIAN DAY OF DEATH [9, 18]: 9.0
50-DAY SURV./TOTAL [9, 19]: 0/6
% ILS [9, 19]: +27%
